This experiment has as its target Histone acetyltransferase KAT2B (Homo sapiens, UniProt Q92831). Briefly: Binding affinity to human partial length PCAF bromodomain expressed in mammalian expression system by BROMOscan method.

Histone acetyltransferase KAT2B, sequence (Q92831 whole entry): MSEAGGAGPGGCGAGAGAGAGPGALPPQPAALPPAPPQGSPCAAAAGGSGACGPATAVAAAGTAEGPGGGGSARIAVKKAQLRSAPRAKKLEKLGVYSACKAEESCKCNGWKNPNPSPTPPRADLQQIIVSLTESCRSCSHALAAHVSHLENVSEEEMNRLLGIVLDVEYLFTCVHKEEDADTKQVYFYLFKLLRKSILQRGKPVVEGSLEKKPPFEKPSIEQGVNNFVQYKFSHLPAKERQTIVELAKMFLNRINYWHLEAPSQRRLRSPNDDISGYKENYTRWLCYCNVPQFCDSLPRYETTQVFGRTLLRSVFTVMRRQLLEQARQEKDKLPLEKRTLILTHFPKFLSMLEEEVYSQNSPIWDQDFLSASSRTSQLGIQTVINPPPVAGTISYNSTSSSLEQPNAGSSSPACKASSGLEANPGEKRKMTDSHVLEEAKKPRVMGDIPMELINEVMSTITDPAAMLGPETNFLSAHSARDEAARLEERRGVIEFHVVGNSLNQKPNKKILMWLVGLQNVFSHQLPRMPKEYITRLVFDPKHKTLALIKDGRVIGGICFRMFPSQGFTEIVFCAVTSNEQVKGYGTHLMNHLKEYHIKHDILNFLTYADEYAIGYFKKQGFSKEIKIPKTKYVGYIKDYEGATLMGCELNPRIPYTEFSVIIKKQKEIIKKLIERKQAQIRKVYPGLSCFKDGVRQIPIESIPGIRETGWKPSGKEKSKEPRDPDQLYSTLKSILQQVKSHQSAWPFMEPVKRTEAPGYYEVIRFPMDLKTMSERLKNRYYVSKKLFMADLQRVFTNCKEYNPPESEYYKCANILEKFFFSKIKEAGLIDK

Regarding `CN1C[C@H](Nc2cnn(C)c(=O)c2Br)C[C@H](c2ccccc2)C1`, the affinity, expressed as Ki, was 1.26 nM.

(Values after BindingDB's records for doi:10.1021/acs.jmedchem.6b01566 (Glaxosmithkline, 2017).)
